# Data published in patent US20090304692A1, “TRIAZINE COMPOUNDS AS PI3 KINASE AND MTOR INHIBITORS” (Wyeth, priority 2008, published 2009).
# Like-named read-outs stand apart in the source and are kept apart here.
# Experiments:
# PI3K-α = PI3K-α (Homo sapiens, UniProt P42336); assay: PI3K-alpha fluorescence polarization assay; conditions: read-out: IC50 PI3Kα
# PI3K-γ = PI3K-γ (Homo sapiens, UniProt P48736); assay: PI3K-gamma fluorescence polarization assay; conditions: read-out: IC50 PI3Kγ
# [1] = tested on: human prostate PC3-mm2 tumor cell line; assay: In vitro cell culture growth assay (MTS), PC3-mm2; format: cell-based; conditions: read-out: IC50 PC3-mm2
# [2] = tested on: human breast MDA-MB-361 tumor cell line; assay: In vitro cell culture growth assay (MTS), MDA-MB-361; format: cell-based; conditions: read-out: IC50 MDA-MB-361
# Human mTOR (FLAG-TOR) = Human mTOR (FLAG-TOR) (Homo sapiens, UniProt P42345); assay: mTOR kinase assay (DELFIA format, purified enzyme); format: biochemical; conditions: read-out: IC50 mTOR
# [3] = Homo sapiens, PC3MM2, 72 h, MTS cell growth assay, three days after drug treatment, PC3-mm2 cells
# [4] = Homo sapiens, 72 h, MTS cell growth assay, three days after drug treatment, MDA-MB-361 cells
# [5] = MTS cell growth assay, three days after drug treatment, MDA-MB-361 cells
# [6] = Homo sapiens, PC3MM2, 72 h, MTS cell growth assay, three days after drug treatment
# [7] = Homo sapiens, PC3MM2, 72 h, PC3-mm2 cells, MTS, three days after drug treatment
# [8] = MTS cell growth assay, three days after drug treatment, PC3-mm2 cells
# [9] = MTS cell growth assay, three days after drug treatment
# Sequence of PI3K-α (P42336 whole entry, species assumed): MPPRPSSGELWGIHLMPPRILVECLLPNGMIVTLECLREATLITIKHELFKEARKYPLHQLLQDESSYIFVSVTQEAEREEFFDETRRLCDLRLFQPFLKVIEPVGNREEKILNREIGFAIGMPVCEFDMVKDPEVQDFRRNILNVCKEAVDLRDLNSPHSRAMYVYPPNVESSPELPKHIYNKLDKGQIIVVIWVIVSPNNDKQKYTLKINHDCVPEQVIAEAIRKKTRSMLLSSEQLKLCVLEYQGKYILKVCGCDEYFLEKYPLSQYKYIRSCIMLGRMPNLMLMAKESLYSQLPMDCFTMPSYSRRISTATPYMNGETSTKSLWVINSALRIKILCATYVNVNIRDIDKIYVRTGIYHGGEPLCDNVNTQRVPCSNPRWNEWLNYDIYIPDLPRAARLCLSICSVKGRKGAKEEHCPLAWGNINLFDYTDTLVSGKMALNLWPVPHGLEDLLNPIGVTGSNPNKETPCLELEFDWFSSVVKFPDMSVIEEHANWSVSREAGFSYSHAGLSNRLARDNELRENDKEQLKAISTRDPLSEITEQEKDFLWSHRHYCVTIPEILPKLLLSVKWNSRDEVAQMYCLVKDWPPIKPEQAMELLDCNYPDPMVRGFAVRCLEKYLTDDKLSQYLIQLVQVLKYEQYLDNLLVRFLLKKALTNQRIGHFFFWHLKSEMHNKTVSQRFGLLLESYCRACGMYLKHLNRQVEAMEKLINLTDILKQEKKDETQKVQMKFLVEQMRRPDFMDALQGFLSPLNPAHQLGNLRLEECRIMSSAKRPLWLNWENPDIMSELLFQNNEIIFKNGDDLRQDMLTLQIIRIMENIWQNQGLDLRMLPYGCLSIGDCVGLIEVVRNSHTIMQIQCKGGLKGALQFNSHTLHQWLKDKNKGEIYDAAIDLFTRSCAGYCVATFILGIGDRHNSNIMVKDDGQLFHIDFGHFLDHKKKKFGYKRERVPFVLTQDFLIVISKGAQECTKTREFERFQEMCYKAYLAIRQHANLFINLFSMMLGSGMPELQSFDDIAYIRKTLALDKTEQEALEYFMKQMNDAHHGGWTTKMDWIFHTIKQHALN
# Sequence of PI3K-α (P27986 whole entry partner, species assumed): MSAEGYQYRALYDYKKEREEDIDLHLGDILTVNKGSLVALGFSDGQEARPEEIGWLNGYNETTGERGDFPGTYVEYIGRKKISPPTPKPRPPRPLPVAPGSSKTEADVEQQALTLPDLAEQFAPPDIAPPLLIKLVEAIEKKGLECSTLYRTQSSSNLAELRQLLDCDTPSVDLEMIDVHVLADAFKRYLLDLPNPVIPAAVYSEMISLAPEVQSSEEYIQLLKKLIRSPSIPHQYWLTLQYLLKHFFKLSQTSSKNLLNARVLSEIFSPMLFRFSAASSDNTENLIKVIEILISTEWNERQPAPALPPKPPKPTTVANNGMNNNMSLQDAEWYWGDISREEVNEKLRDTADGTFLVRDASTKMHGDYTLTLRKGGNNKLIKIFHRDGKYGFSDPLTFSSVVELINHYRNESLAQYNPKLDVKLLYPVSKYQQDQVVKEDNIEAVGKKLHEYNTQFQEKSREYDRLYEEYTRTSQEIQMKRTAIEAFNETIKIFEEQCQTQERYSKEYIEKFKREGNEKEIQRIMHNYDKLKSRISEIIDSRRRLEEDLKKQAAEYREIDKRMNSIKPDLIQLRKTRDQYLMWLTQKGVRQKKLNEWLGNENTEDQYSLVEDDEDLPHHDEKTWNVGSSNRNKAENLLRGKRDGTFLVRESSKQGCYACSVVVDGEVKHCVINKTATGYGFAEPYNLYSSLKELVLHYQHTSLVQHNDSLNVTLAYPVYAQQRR
# Sequence of PI3K-γ (P48736 whole entry, species assumed): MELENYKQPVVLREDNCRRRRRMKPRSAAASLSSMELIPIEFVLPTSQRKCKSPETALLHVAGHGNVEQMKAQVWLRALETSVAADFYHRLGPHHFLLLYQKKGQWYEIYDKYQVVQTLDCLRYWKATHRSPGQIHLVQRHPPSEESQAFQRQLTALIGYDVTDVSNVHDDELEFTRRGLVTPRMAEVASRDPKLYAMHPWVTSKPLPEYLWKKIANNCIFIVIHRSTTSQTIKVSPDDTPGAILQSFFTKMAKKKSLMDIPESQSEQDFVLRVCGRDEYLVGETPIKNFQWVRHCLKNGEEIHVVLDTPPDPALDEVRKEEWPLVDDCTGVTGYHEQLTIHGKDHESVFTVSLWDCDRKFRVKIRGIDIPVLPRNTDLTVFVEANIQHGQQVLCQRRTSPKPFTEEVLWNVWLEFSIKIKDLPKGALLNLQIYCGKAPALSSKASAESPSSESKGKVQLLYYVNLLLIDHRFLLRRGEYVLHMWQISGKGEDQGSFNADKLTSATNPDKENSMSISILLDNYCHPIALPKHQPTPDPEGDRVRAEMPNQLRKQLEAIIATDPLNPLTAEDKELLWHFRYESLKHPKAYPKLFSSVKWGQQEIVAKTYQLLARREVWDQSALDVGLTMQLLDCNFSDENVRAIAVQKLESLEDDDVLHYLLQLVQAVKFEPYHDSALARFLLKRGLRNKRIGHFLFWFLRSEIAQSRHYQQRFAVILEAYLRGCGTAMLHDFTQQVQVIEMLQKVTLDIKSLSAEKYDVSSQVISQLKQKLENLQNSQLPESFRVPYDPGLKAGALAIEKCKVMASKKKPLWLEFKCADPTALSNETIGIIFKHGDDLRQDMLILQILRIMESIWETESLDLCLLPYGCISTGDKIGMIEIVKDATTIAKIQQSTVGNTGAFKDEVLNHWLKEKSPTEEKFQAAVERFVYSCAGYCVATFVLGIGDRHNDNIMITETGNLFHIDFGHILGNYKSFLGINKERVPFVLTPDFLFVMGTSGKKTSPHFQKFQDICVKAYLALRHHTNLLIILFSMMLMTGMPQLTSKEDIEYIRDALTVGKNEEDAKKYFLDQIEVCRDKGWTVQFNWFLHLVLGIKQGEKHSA
# Sequence of Human mTOR (FLAG-TOR) (P42345 1360-2549 limits assumed): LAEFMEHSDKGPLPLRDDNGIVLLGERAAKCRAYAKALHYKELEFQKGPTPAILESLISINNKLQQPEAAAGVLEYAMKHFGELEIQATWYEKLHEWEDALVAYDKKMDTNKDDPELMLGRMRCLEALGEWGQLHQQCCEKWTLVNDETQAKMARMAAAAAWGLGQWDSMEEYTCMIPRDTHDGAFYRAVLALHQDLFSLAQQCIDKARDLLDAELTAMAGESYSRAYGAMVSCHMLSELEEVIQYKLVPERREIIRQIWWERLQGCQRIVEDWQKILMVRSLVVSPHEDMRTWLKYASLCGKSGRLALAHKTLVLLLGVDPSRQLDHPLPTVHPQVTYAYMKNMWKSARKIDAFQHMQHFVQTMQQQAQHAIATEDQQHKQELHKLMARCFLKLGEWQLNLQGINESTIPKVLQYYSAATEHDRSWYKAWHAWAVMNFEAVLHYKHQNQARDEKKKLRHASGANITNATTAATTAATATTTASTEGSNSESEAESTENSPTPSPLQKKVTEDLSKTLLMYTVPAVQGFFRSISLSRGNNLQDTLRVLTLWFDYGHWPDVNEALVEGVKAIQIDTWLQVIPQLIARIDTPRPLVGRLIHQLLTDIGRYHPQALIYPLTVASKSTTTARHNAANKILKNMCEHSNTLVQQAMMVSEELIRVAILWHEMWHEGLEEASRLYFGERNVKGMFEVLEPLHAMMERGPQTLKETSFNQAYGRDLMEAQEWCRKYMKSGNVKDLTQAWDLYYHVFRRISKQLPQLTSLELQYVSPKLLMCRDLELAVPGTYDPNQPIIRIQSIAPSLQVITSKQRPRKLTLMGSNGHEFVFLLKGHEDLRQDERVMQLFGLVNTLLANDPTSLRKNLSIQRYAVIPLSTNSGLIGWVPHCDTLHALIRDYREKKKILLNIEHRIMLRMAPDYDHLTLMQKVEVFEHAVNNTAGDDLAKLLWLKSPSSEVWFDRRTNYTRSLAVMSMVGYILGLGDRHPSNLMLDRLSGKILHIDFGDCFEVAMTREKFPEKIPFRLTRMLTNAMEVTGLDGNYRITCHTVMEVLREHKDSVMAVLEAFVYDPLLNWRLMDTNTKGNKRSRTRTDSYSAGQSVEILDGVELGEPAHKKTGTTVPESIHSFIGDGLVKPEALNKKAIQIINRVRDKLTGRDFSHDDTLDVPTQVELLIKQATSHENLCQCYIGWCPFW
Molecule,IC50 (PI3K-α) [nM],IC50 (PI3K-γ) [nM],IC50 (Human mTOR (FLAG-TOR)) [nM],other results
"C[C@H]1COCCN1c1nc(-c2ccc(NC(=O)Nc3ccc(C(=O)N4CCCC4)cc3)cc2)nc(N2CCOC[C@@H]2C)n1 [Example 571, 1-(4-{4,6-bis[(3S)-3-methylmorpholin-4-yl]-1,3,5-triazin-2-yl}phenyl)-3-[4-(pyrrolidin-1-ylcarbonyl)phenyl]urea]",21,108,,"IC50 [1, 3]: 168 nM; IC50 ([2]; Homo sapiens, MDA-MB-361, 72 h, MTS cell growth assay, three days after drug treatment, MDA-MB-361 cells): 90 nM"
"O=C(Nc1ccncc1)Nc1ccc(-c2nc(-c3ccccc3)nc(N3CCOCC3)n2)cc1 [Example 346, 1-[4-(4-morpholin-4-yl-6-phenyl-1,3,5-triazin-2-yl)phenyl]-3-pyridin-4-ylurea]",43,89,,"IC50 (PI3K-α; listed as 537): 43.5 nM; IC50 [1, 3]: < 31 nM; IC50 [2, 4]: < 31 nM"
"COc1nc(-c2ccc(NC(=O)Nc3ccc(C(=O)N4CCNC(C)(C)C4)cc3)cc2)nc(N2CCOCC2)n1 [Example 247, 1-{4-[(3,3-dimethylpiperazin-1-yl)carbonyl]phenyl}-3-[4-(4-methoxy-6-morpholin-4-yl-1,3,5-triazin-2-yl)phenyl]urea]",2,,,"IC50 (PI3K-α; listed as 724): 1.5 nM; IC50 ([1]; Homo sapiens, PC3MM2, 72 h): 111 nM; IC50 ([2]; Homo sapiens, MDA-MB-361, 72 h): 30 nM"
"1-(4-{[4-(dimethylamino)piperidin-1-yl]carbonyl}phenyl)-3-[4-(4-morpholin-4-yl-6-phenyl-1,3,5-triazin-2-yl)phenyl]urea [Example 544]",3.5,20.5,17,"IC50 [2, 5]: 58 nM"
"CC(O)c1nc(-c2ccc(NC(=O)Nc3ccncc3)cc2)nc(N2CCOCC2)n1 (stereo not shown) [Example 223, 1-{4-[4-(1-hydroxyethyl)-6-morpholin-4-yl-1,3,5-triazin-2-yl]phenyl}-3-pyridin-4-ylurea]",2,200,,"IC50 [1, 6]: 229 nM; IC50 ([2]; Homo sapiens, MDA-MB-361, 72 h, MTS cell growth assay, three days after drug treatment): 187 nM"
"CN(C)CCN(C)C(=O)Nc1ccc(NC(=O)Nc2ccc(-c3nc(N4CCOCC4)nc(N4CCOCC4)n3)cc2)cc1 [Example 500, 1-[2-(dimethylamino)ethyl]-3-[4-({[4-(4,6-dimorpholin-4-yl-1,3,5-triazin-2-yl)phenyl]carbamoyl}amino)phenyl]-1-methylurea]",0.4,10,1.09,"IC50 [2, 4]: 1 nM"
"C[C@@H]1COCCN1c1nc(-c2ccc(NC(=O)Nc3ccc(C(=O)NCCN(C)C)cc3)cc2)nc(N2CCOC[C@@H]2C)n1 [Example 634, N-[2-(dimethylamino)ethyl]-4-{[(4-{4-[(3R)-3-methylmorpholin-4-yl]-6-[(3S)-3-methylmorpholin-4-yl]-1,3,5-triazin-2-yl}phenyl)carbamoyl]amino}benzamide]",6,122,,"IC50 [1, 3]: 16 nM; IC50 [2, 4]: 5 nM"
"CC(C)Cc1nc(-c2ccc(NC(=O)Nc3ccc(C(=O)N4CCC(N(C)C)CC4)cc3)cc2)nc(N2CCOCC2)n1 [Example 323, 1-(4-{[4-(dimethylamino)piperidin-1-yl]carbonyl}phenyl)-3-{4-[4-(2-methylpropyl)-6-morpholin-4-yl-1,3,5-triazin-2-yl]phenyl}urea]",2.9,32,7,"IC50 [1, 6]: 77 nM"
"COc1nc(-c2ccc(NC(=O)Nc3ccc(C(=O)NCCN4CCCCC4)cc3)cc2)nc(N2CCOCC2)n1 [Example 248, 4-({[4-(4-methoxy-6-morpholin-4-yl-1,3,5-triazin-2-yl)phenyl]carbamoyl}amino)-N-(2-piperidin-1-ylethyl)benzamide]",2,,,"IC50 ([1]; Homo sapiens, PC3MM2, 72 h): 69 nM; IC50 ([2]; Homo sapiens, MDA-MB-361, 72 h): < 31 nM"
"CN1CCN(C(=O)c2ccc(NC(=O)Nc3ccc(-c4nc(N5CCOCC5)[nH]c(=O)n4)cc3)cc2)CC1 [Example 826, 1-{4-[(4-methylpiperazin-1-yl)carbonyl]phenyl}-3-[4-(6-morpholin-4-yl-4-oxo-4,5-dihydro-1,3,5-triazin-2-yl)phenyl]urea]",15,,,"IC50 [1, 7]: > 1000 nM; IC50 ([2]; Homo sapiens, MDA-MB-361, 72 h): > 1000 nM"
"4-{[(4-{4-morpholin-4-yl-6-[(3S)-tetrahydrofuran-3-yloxy]-1,3,5-triazin-2-yl}phenyl)carbamoyl]amino}-N-(2-pyrrolidin-1-ylethyl)benzamide [Example 521]",1.4,,,"IC50 [1, 8]: 27 nM; IC50 [2, 5]: 8 nM"
"CC(C)c1nc(-c2ccc(NC(=O)Nc3ccc(C(=O)NC4CN(C)C4)cc3)cc2)nc(N2CCOCC2)n1 [Example 307, N-(1-methylazetidin-3-yl)-4-[({4-[4-(1-methylethyl)-6-morpholin-4-yl-1,3,5-triazin-2-yl]phenyl}carbamoyl)amino]benzamide]",3,30,2.8,"IC50 [1, 6]: 362 nM"
"C[C@H]1COCCN1c1nc(-c2ccc(NC(=O)Nc3ccc(C(=O)NCCN4CCCC4)cc3)cc2)nc(N2CCOCC2)n1 [Example 622, 4-{[(4-{4-[(3S)-3-methylmorpholin-4-yl]-6-morpholin-4-yl-1,3,5-triazin-2-yl}phenyl)carbamoyl]amino}-N-(2-pyrrolidin-1-ylethyl)benzamide]",3,50.5,,"IC50 [1, 3]: 25 nM; IC50 [2, 4]: 5 nM"
"O=C(Nc1ccncc1)Nc1ccc(-c2nc(N3CCOCC3)nc(N3CC4CCC3CO4)n2)cc1 (stereo not shown) [Example 807, 1-{4-[4-morpholin-4-yl-6-(2-oxa-5-azabicyclo[2.2.2]oct-5-yl)-1,3,5-triazin-2-yl]phenyl}-3-pyridin-4-ylurea]",,,,"IC50 [1, 7]: 37 nM; IC50 ([2]; Homo sapiens, 72 h, MDA-MB-361 cells, MTS, three days after drug treatment): 35 nM"
"O=C(Nc1ccncc1)Nc1ccc(-c2nc(N3CCCCC3)nc(N3CC4CCC(C3)O4)n2)cc1 [Example 79, 1-(4-(4-(8-oxa-3-azabicyclo[3.2.1]octan-3-yl)-6-(piperidin-1-yl)-1,3,5-triazin-2-yl)phenyl)-3-(pyridin-4-yl)urea]",773,193,5.1,"IC50 [1, 6]: 320 nM"
1-(4-{[(3S)-3-(dimethylamino)pyrrolidin-1-yl]carbonyl}phenyl)-3-{4-[4-morpholin- [Example 517],3.4,18.5,1.06,"IC50 [1, 8]: 7 nM"
"1-(4-(4,6-dimorpholino-1,3,5-triazin-2-yl)phenyl)-3-(4-(2-(pyridin-2-yl)acetyl)phenyl)urea [Example 78]",,23,,"IC50 [1, 9]: 31 nM; IC50 [2, 9]: 68 nM"
"N-[2-(dimethylamino)ethyl]-4-({[4-(4-morpholin-4-yl-6-piperidin-1-yl-1,3,5-triazin-2-yl)phenyl]carbamoyl}amino)benzamide [Example 601]",3.5,57.5,3,"IC50 [1, 8]: 155 nM"
"4-{[(4-{4,6-bis[(3S)-3-methylmorpholin-4-yl]-1,3,5-triazin-2-yl}phenyl)carbamoyl]amino}-N-(2-pyrrolidin-1-ylethyl)benzamide [Example 635]",22,378,,"IC50 [1, 8]: 106 nM; IC50 [2, 5]: 26 nM"
"CN(C)CCNC(=O)c1ccc(NC(=O)Nc2ccc(-c3nc(N4CCCOCC4)nc(N4CCOCC4)n3)cc2)cc1 [Example 572, N-[2-(dimethylamino)ethyl]-4-[({4-[4-morpholin-4-yl-6-(1,4-oxazepan-4-yl)-1,3,5-triazin-2-yl]phenyl}carbamoyl)amino]benzamide]",0.9,15,,"IC50 [1, 3]: 56 nM; IC50 [2, 4]: 13 nM"
"CNCCN(C)C(=O)c1ccc(NC(=O)Nc2ccc(-c3nc(OC)nc(N4CCOCC4)n3)cc2)cc1 [Example 245, 4-({[4-(4-methoxy-6-morpholin-4-yl-1,3,5-triazin-2-yl)phenyl]carbamoyl}amino)-N-methyl-N-[2-(methylamino)ethyl]benzamide]",1,,,"IC50 (PI3K-α; listed as 722): 0.8 nM; IC50 ([1]; Homo sapiens, PC3MM2, 72 h): 374 nM; IC50 ([2]; Homo sapiens, MDA-MB-361, 72 h): 110 nM"
"COc1nc(-c2ccc(NC(=O)Nc3ccc(C(=O)N4CCN(C)CC4)cc3)cc2)nc(N2CCOCC2)n1 [Example 246, 1-[4-(4-methoxy-6-morpholin-4-yl-1,3,5-triazin-2-yl)phenyl]-3-{4-[(4-methylpiperazin-1-yl)carbonyl]phenyl}urea]",,,,"IC50 ([1]; Homo sapiens, PC3MM2, 72 h): 91 nM; IC50 ([2]; Homo sapiens, MDA-MB-361, 72 h): 35 nM"
"1-(4-{[4-(1-methylethyl)piperazin-1-yl]carbonyl}phenyl)-3-[4-(4-morpholin-4-yl-6-piperidin-1-yl-1,3,5-triazin-2-yl)phenyl]urea [Example 595]",,58.5,,"IC50 [1, 8]: 193 nM; IC50 [2, 5]: 43 nM"
"CCCCc1nc(-c2ccc(NC(=O)Nc3ccc(C(=O)Nc4ccc(OCCN(C)C)cc4)cc3)cc2)nc(N2CCOCC2)n1 [Example 269, 4-({[4-(4-butyl-6-morpholin-4-yl-1,3,5-triazin-2-yl)phenyl]carbamoyl}amino)-N-{4-[2-(dimethylamino)ethoxy]phenyl}benzamide]",6,140,80,"IC50 [1, 6]: 144 nM"
